Results taken from US12268702B2, “Antitumor pharmaceutical composition comprising azvudine and chemotherapeutic agent” (HENAN GENUINE BIOTECH CO., LTD., priority 2023, dated 2025).
Several values for one entry are separate records, joined by “and”; a condition that tells them apart may be missing. Equal entries are not always repeated.

What was measured:
Assay type in all cases: in vivo
[1] = tested on: Colo 205 human colon cancer model; assay: Colo 205 human colon cancer subcutaneous xenograft tumor model
Description: Experimental animals were 68 (48 plus 20 spare mice) BALB/c female nude mice, 7-8 weeks old (the age of mice at the time of tumor cell inoculation) and weighing 15.7-20.7 g, which were purchased from Beijing VitalRiver Experimental Animal Technology Co., Ltd. Breeding environment was SPF grade. The experimental animals were all kept in an independent ventilated box with constant temperature and humidity. The temperature of the breeding room was 20-26° C., the humidity was 40-70%. The breeding room was ventilated 10-20 times per hour. The alternating time of day and night was 12 h/12 h. The mice were continuously supplied with cobalt 60 radiation sterilized mouse complete pellet feed, and had free access to the feed. The mice drank tap water (available after sterilization with high-pressure steam), which was continuously supplied using a water-drinking bottle, and had free access to water. The mouse box was a polysulfone mouse box, which was used after sterilization under high pressure, with a size of 325 mm×210 mm×180 mm.
Colo 205 cells were cultured in RPMI1640 medium containing 10% fetal bovine serum. Colo 205 cells in the exponential growth phase were collected, resuspended in PBS to an appropriate concentration and mixed with Matrigel at a ratio of 1:1. The resulting mixture was used for subcutaneous inoculation of tumor in mice. 5×10^6 Colo 205 cells were subcutaneously inoculated on the right side of female mice. The day of inoculation was defined as Day 0. When the average tumor volume reached 110.26 mm^3, the mice were randomly divided into groups according to tumor size.
Relative tumor proliferation rate, T/C %, refers to the percentage value of the relative tumor volume or tumor weight of the treatment group and the control group at a certain time point, which was calculated as follows:
T/C %=TRTV/CRTV×100% (TRTV: the average RTV of the treatment group; CRTV: the average RTV of the vehicle control group; RTV=Vt/V0, where V0 is the tumor volume of the animal when grouped, and Vt is the tumor volume of the animal after treatment); • or T/C %=TTW/CTW×100% (TTW: the average tumor weight of the treatment group at the end of the experiment; CTW: the average tumor weight of the vehicle control group at the end of the experiment). • Relative tumor inhibition rate, TGI (%), was calculated according to the formula as follows: TGI %=(1−T/C)×100%. (T and C are the relative tumor volumes (RTV) or tumor weights (TW) of the treatment group and the control group at a specific time point).

[2] = tested on: LoVo xenograft tumor model; assay: LoVo human colon cancer subcutaneous xenograft tumor model; conditions: 21st day of administration, azvudine 1 mpk, capecitabine 400 mpk, combination 1 + 400 mpk; for Tumor volume (mm^3): BALB/c nude mice, p.o. QD x 3 weeks
Description: Human colon cancer cells LoVo (Cat. No.: ECACC-87060101) were cultured in vitro as a monolayer in F12K medium containing 10% fetal bovine serum, 100 U/mL penicillin and 100 μg/mL streptomycin, in a 37° C. and 5% CO2 incubator. The cells were routinely digested with trypsin-EDTA and passaged twice a week. When the cell saturation reached 80%-90% and the cell number achieved the requirement, the cells were collected, counted and inoculated.
0.1 mL)(10×10^6) of LoVo cells were subcutaneously inoculated on the right back of each mouse. The grouping administration was started when the average tumor volume reached about 147 mm^3.
The tumor volume changes and the tumor weight changes in each group (on the 21st day of administration) after administration of test drugs for treating BALB/c nude mice with Lovo cell subcutaneous xenograft tumor are shown in Table 5 and Table 6 respectively.

[3] = tested on: Daudi xenograft tumor model; assay: Human Burkitt's lymphoma cell Daudi subcutaneous xenograft tumor model; conditions: combination 1 + 50 mg/kg; for Tumor volume (mm^3) on the 27th day: CB 17 SCID mice, QD x 4 weeks, azvudine 1 mg/kg p.o., cyclophosphamide 50 mg/kg i.p.
Description: Human Burkitt's lymphoma cells Daudi (Cat. No.: DSMZ-ACC129) were in vitro suspended and cultured in RPMI 1640 medium containing 10% fetal bovine serum, 2 mM glutamine, 100 U/mL penicillin and 100 μg/mL streptomycin, in a 37° C. and 5% CO2 incubator. When the cell saturation achieved 80%-90% and the cell number reached the requirement, the cells were collected, counted and inoculated.
0.2 mL (10×10^6) of Daudi cells (added with Matrigel at a volume ratio of 1:1) were subcutaneously inoculated on the right back of each mouse. The grouping administration was started when the average tumor volume reached about 100 mm^3.
The changes of tumor volume and tumor weight in each group after administration of test drugs for treating CB 17 SCID mice with Daudi cell subcutaneous xenograft tumor are shown in Table 8 and Table 9 respectively.

[4] = tested on: MOLT4 xenograft tumor model; assay: Human acute lymphoblastic leukemia MOLT4 cell subcutaneous xenograft tumor model; conditions: combination 1 + 50 mg/kg; for Tumor volume (mm^3) on the 28th day: SCID Beige mice, QD x 4 weeks, azvudine 2 mg/kg in Table 10, cyclophosphamide 50 mg/kg i.p.
Description: Human acute lymphoblastic leukemia cells MOLT4 (Cat. No.: ECACC-85011413) were in vitro suspended and cultured in RPMI 1640 medium containing 10% fetal bovine serum, 100 U/mL penicillin and 100 μg/mL streptomycin, in a 37° C. and 5% CO2 incubator. When the cell saturation achieved 80%-90% and the cell number reached the requirement, the cells were collected, counted and inoculated.
0.2 mL (10×10^6) of MOLT4 cells (added with Matrigel at a volume ratio of 1:1) were subcutaneously inoculated on the right back of each mouse. The grouping administration was started when the average tumor volume reached about 148 mm^3.
The changes of tumor volume and tumor weight in each group after administration of test drugs for treating SCID Beige mice with MOLT4 cell subcutaneous xenograft tumor are shown in Table 10 and Table 11.

[5] = tested on: OVCAR-8 human ovarian cancer model; assay: OVCAR-8 human ovarian cancer subcutaneous xenograft tumor model; conditions: azvudine 1 mg/kg, paclitaxel 15 mg/kg, avastin 10 mg/kg, combinations 1 + 15 and 1 + 10 mg/kg; for T/C (%) / TGI (%) / Tumor volume (x ± S): 34th day after grouping; for average tumor volume: 34th day of administration
Description: OVCAR-8 cells were cultured in RPMI1640 medium containing 10% fetal bovine serum. OVCAR-8 cells in the exponential growth phase were collected, resuspended in PBS to an appropriate concentration and mixed with Matrigel at a ratio of 1:1. The resulting mixture was used for subcutaneous inoculation of tumor in mice.
1×10^7 OVCAR-8 cells were inoculated subcutaneously on the right side of female mice. When the average tumor volume achieved 174.25 mm^3, the mice were randomly divided into groups according to tumor size.
The experimental protocols for animal experiments in this experiment were reviewed and approved by the CrownBio IACUC committee. During the experiment, the animal experiments were performed in accordance with the requirements of AAALAC. After tumor inoculation was completed, the impact of tumor growth and treatment on normal behavior of animals was routinely monitored, specifically the activity of experimental animals, food intake and water intake, body weight gain or loss (body weight was measured twice a week), eye, hair and other abnormalities. The clinical symptoms observed during the experiment were recorded in the original data. The tumor volume was calculated according to the following formula: tumor volume (mm^3)=½×(a×b^2) (where a represents long diameter and b represents short diameter).
Relative tumor proliferation rate, T/C %, refers to the percentage value of the relative tumor volume or tumor weight of the treatment group and the control group at a certain time point, which was calculated as follows: • T/C %=TRTV/CRTV×100% (TRTV: the average RTV of the treatment group; CRTV: the average RTV of the vehicle control group; RTV=Vt/V0, where V0 is the tumor volume of the animal when grouped, and Vt is the tumor volume of the animal after treatment); • or T/C %=TTW/CTW×100% (TTW: the average tumor weight of the treatment group at the end of the experiment; CTW: the average tumor weight of the vehicle control group at the end of the experiment).
Relative tumor inhibition rate, TGI (%), was calculated according to the formula as follows: TGI %=(1−T/C)×100%. (T and C are the relative tumor volumes (RTV) or tumor weights (TW) of the treatment group and the control group at a specific time point).
To compare tumor volumes of different treatment groups on a given day, first the assumption of homogeneity of variance among all groups was tested using the Bartlett test. When the p-value of Bartlett's test was not less than 0.05, whether all group means were equal was tested using one-way ANOVA. If the p-value of the one-way ANOVA was less than 0.05, pairwise comparisons among all groups were conducted using Tukey's HSD test, or pairwise comparisons between each treatment group and control group were conducted using Dunnett's t-test. When the p-value of Bartlett's test was less than 0.05, whether the medians of all groups were equal was tested using Kruskal Wallis test. If the p-value of the Kruskal Wallis test was less than 0.05, pairwise comparisons among all groups or between each treatment group and control group were conducted using Conover test, and the corresponding p-value correction was performed according to the number of groups in the multiple test.

[6] = based on tumor volume, 25th day after inoculation, p.o. QD x 3 weeks, azvudine 1 mpk, capecitabine 400 mpk, combination 1 + 400 mpk
[7] = based on tumor weight, azvudine 1 mpk, capecitabine 400 mpk, combination 1 + 400 mpk
[8] = based on tumor volume, 27th day, azvudine 1 mg/kg, cyclophosphamide 50 mg/kg
[9] = based on tumor volume, 28th day, azvudine 2 mg/kg in Table 10, cyclophosphamide 50 mg/kg

CCCCCOC(=O)Nc1nc(=O)n([C@@H]2O[C@H](C)[C@@H](O)[C@H]2O)cc1F [Capecitabine, capecitabine]
Tumor volume ([1]; 25th day after inoculation (20th day after grouping), BALB/c nude mice, p.o. QD x 3 weeks, azvudine 1 mpk, capecitabine 400 mpk, combination 1 + 400 mpk): 264.96 ± 38.65(6)
average tumor volume ([1]; 25th day after tumor inoculation (20th day after grouping), azvudine 1 mg/kg, capecitabine 400 mg/kg, combination 1 + 400 mg/kg): 264.96 mm^3
T/C (%) [1, 6]: 18.07%
TGI (%) [1, 6]: 81.93%
T/C (%) [1, 7]: 85.92%
TGI [1, 7]: 14.08
Tumor weight (mg) ([1]; end of experiment, p.o. QD x 3 weeks, azvudine 1 mpk, capecitabine 400 mpk, combination 1 + 400 mpk): 193.35 ± 28.54(6) mg
Tumor volume (mm^3) [2]: 919 ± 190 mm^3
Tumor volume (mm^3) ([2]; listed as capecitabine): 919 mm^3
Tumor weight [2]: 0.893 ± 0.173 g
T/C (%) ([2]; based on tumor volume): 60.94%
TGI (%) ([2]; based on tumor volume): 42.11%
TGI (%) ([2]; based on tumor volume, listed as capecitabine): 42.11% and 42.1%
T/C (%) ([2]; based on tumor weight): 63.27%

O=P1(N(CCCl)CCCl)NCCCO1 (centres unmarked) [Cyclophosphamide, cyclophosphamide]
Tumor volume (mm^3) on the 27th day ([3]; 27th day of administration): 263 ± 54 mm^3
Tumor volume (mm^3) on the 27th day ([3]; 27th day of administration, listed as cyclophosphamide): 263 mm^3
Tumor weight (g) (On the 27th day) ([3]; 27th day of administration, azvudine 1 mg/kg, cyclophosphamide 50 mg/kg): 0.343 ± 0.066 g
T/C (%) [3, 8]: 8.83%
TGI (%) [3, 8]: 94.17%
T/Cweight (%) ([3]; based on tumor weight, 27th day, azvudine 1 mg/kg, cyclophosphamide 50 mg/kg): 11.49%
Tumor volume (mm^3) on the 28th day ([4]; 28th day of administration): 716 ± 76 mm^3
Tumor volume (mm^3) on the 28th day ([4]; 28th day of administration, listed as cyclophosphamide CTX): 716 mm^3
Tumor weight (g) (On the 28th day) ([4]; 28th day of administration, azvudine 1 mg/kg, cyclophosphamide 50 mg/kg): 0.822 ± 0.065 g
T/C (%) [4, 9]: 24.53%
TGI (%) [4, 9]: 79.34%
T/Cweight (%) ([4]; based on tumor weight, 28th day, azvudine 1 mg/kg, cyclophosphamide 50 mg/kg): 27.65%

CC(=O)O[C@H]1C(=O)[C@@]2(C)[C@H]([C@H](OC(=O)c3ccccc3)[C@]3(O)C[C@H](OC(=O)[C@H](O)[C@@H](NC(=O)c4ccccc4)c4ccccc4)C(C)=C1C3(C)C)[C@]1(OC(C)=O)CO[C@@H]1C[C@@H]2O [Paclitaxel, paclitaxel]
T/C (%) [5]: 73.51%
TGI (%) [5]: 26.49%
Tumor volume (x ± S) [5]: 403.40 ± 69.43(6)
TGI (%) ([5]; listed as paclitaxel): 26.49% and 26.5%
average tumor volume [5]: 403.40 mm^3

Avastin: positive drug avastin
T/C (%) [5]: 82.30%
TGI (%) [5]: 17.70%
Tumor volume (x ± S) [5]: 456.04 ± 110.65(6)
average tumor volume [5]: 456.04 mm^3
